In PMC9691366, “Modulating the pharmacokinetic profile of Actinium-225-labeled macropa-derived radioconjugates by dual targeting of PSMA and albumin” (Theranostics, 2022):
Marks after values point to notes of the source that are not given here.

What was measured:
[1] = over 7 days
Experimental: The final conjugates mcp-M-alb-PSMA and mcp-D-alb-PSMA were successfully radiolabeled with ^225Ac at a concentration down to 10^-6 M with radiochemical conversions of higher than 99% within 15 min at room temperature and a resulting molar activity of 1 MBq/nmol. The radiolabeled actinium complexes [^225Ac]Ac-mcp-M-alb-PSMA and [^225Ac]Ac-mcp-D-alb-PSMA were characterized regarding decomplexation (by radio-TLC) and degradation (by radio-HPLC). […] Log D values for [^225Ac]Ac-mcp-M-alb-PSMA and [^225Ac]Ac-mcp-D-alb-PSMA were determined at pH 7.4 to be ‑2.4 and -1.7, respectively.
^225Ac was commercially supplied by ITM as [^225Ac]AcCl3. Radiolabeling was performed using 100 kBq ^225Ac, the respective ligand stem solution (10^-2 M - 10^-6 M) to reach the required ligand concentration (10^-3 M - 10^-7 M), the necessary amount of 2,5-dihydroxybenzoic acid (final concentration 0.1 M) and a volume of 0.2 M NH4OAc (pH 6) to adjust a total volume of 100 µL. […]
Once the labeling reaction was finished, samples were taken out and the ^225Ac-radioconjugates were analyzed via TLC (two systems: 1 - 0.05 M EDTA (pH 7) on silica plates; 2 - 70/30 acetonitrile/H2O on alugram RP-CN plates) and analytical HPLC on a Jasco HPLC system with GABI analyzer (Elysia Raytest) for gamma detection on a Phenomenex Phenyl-Hexyl column in water/acetonitrile (0.1% TFA each).

LNCaP cells = experiment: Clonogenic survival assay; format: cell-based, human; conditions: for inhibition of colony formation: 1 h exposure; for EC50 for 1 h treatment: clonogenic survival of LNCaP cells, 95% confidence interval in brackets
Experimental: Figure 3 Clonogenic survival of LNCaP cells after treatment with [^225Ac]Ac-mcp-M-alb-PSMA or [^225Ac]Ac-mcp-D-alb-PSMA for (A) 1 h or (B) 4 h, respectively. Cells were exposed to different activity concentrations of 225Ac-labeled PSMA conjugates for the indicated treatment time and thereafter supplemented with fresh medium. Eight days later, colonies formed were stained and counted by digital analysis. Data points represent the mean colony number of three samples, normalized to values obtained for the untreated reference samples.
Colony formation of LNCaP cells upon exposure to increasing activity concentrations of both ^225Ac-radioconjugates was analyzed as previously reported with slight modifications. Briefly, 6000 LNCaP cells were seeded in 6-well microplates (Greiner Bio-One GmbH, Frickenhausen, Germany) and cultivated overnight to allow cell adhesion. The cell culture medium was replaced by serum-free RPMI-1640 medium (2 mL/well) and the microplates were further incubated at 37 °C. After 1 h, five different activity concentrations (0.05, 0.5, 1, 5, and 50 kBq/mL) of the ^225Ac-radioconjugates were added in triplicate. After 1 or 4 h of incubation at 37 °C, the supernatants were replaced by fresh RPMI-1640 medium with 10% FCS (2 mL/well) and plates were incubated at 37 °C for 8 d. Finally, the cell culture medium was discarded and colonies were stained with 0.5% crystal violet in 50% methanol (1 mL/well) for 30 min, after which the plates were rinsed three times with deionized water and subsequently air-dried. The plates were scanned with an Amersham Typhoon 5 Scanner (Cytiva Europe GmbH, Freiburg, Germany) and the colonies were counted using the Image-Quant TL software (Version 8.1, Cytiva Europe GmbH, Freiburg, Germany).

[2] = tested on: LNCaP tumor-bearing SCID mice; format: in vivo, mouse
Experimental: Formalin-fixed and paraffin-embedded mouse tissues were cut in 5 µm sections and immunostained with appropriate antibodies according to standard techniques as well as with standard H&E staining. Antigen retrieval was performed in citrate buffer (pH 6) for all primary antibodies: Ki-67 (clone MIB1, DAKO; dilution 1:200), γH2AX (clone JBW301, Millipore; dilution 1:2500) and PSMA (clone YPSMA-1, Abcam; dilution 1:1000). The presence or absence of necrosis and its percentage in the tumor samples were evaluated by experienced pathologist. […] The data were analyzed using Kruskal-Wallis test followed by Dunn post hoc test using GraphPad Prism version 7.05 (GraphPad Software, San Diego, CA, USA).

Row | SMILES | ^225Ac release (decomplexation, radio-TLC) [1] | inhibition of colony formation (LNCaP cells; 0.05 kBq/mL) | inhibition of colony formation (LNCaP cells; 0.5 kBq/mL) | EC50 for 1 h treatment (LNCaP cells) | H&E stain of tumor tissue (necrosis) ([2]; 72, 120 and 168 h p.i.) | average γH2AX histoscore, kidney ([2]; mouse, in vivo) | inhibition of colony formation (LNCaP cells; 5 kBq/mL) | Ki67 expression in tumor (cellular proliferation) ([2]; compared to untreated controls) | γH2AX staining of tumor tissue (DNA damage) ([2]; compared to untreated controls) | H&E stain of liver tissue (necrosis) ([2]; mouse, in vivo)
1 | O=C(O)CC[C@H](NC(=O)N[C@@H](CCCCNC(=O)[C@H](Cc1ccc2ccccc2c1)NC(=O)[C@H]1CC[C@H](CNC(=O)[C@H](CCCCn2cc(COc3cc(CN4CCOCCOCCN(Cc5cc(OCc6cn(CCCC[C@H](NC(=O)[C@H](CCC(=O)O)NC(=O)CCCc7ccc(I)cc7)C(=O)NC[C@H]7CC[C@H](C(=O)N[C@@H](Cc8ccc9ccccc9c8)C(=O)NCCCC[C@H](NC(=O)N[C@@H](CCC(=O)O)C(=O)O)C(=O)O)CC7)nn6)cc(C(=O)O)n5)CCOCCOCC4)nc(C(=O)O)c3)nn2)NC(=O)[C@H](CCC(=O)O)NC(=O)CCCc2ccc(I)cc2)CC1)C(=O)O)C(=O)O [[^225Ac]Ac-mcp-D-alb-PSMA, metal not drawn] | did not show any ^225Ac release | about 50% | virtually abrogated clonogenic activity | 0.0519 (0.0353 to 0.0753)^# kBq/mL | necrotic lesions in the group 72 h p.i. | 99 |  |  |  | 
2 | O=C(O)CC[C@H](NC(=O)N[C@@H](CCCCNC(=O)[C@H](Cc1ccc2ccccc2c1)NC(=O)[C@H]1CC[C@H](CNC(=O)[C@H](CCCCn2cc(COc3cc(CN4CCOCCOCCN(Cc5cccc(C(=O)O)n5)CCOCCOCC4)nc(C(=O)O)c3)nn2)NC(=O)[C@H](CCC(=O)O)NC(=O)CCCc2ccc(I)cc2)CC1)C(=O)O)C(=O)O [[^225Ac]Ac-mcp-M-alb-PSMA, metal not drawn] | did not show any ^225Ac release |  | about 50% | 0.5233 (0.4010 to 0.6767)^# kBq/mL |  | 62 | almost complete inhibition of colony formation | did not show any significant decrease in proliferation | significant DNA damage in tumor cells | significant necrosis
